Consider one molecule from PMC12689914, “Identification of a novel dual-targeting peptide inhibitor of SARS-CoV-2 RBD and NRP1 through structure-based virtual screening” (Frontiers in Pharmacology, 2025).

This experiment concerns SARS-CoV-2 Omicron XBB.1.5 pseudovirus. To be noted: Omicron XBB.1.5 pseudovirus, 48 h.

Non-standard residues stand in square brackets, D forms with d. Residues, ends and D or L forms follow the SMILES beside them.

As for `CC(C)C[C@H](NC(=O)[C@H](CCC(=O)O)NC(=O)[C@H](C)NC(=O)[C@@H](N)CCC(=O)O)C(=O)N[C@H](CC(=O)O)C(=O)N[C@H](C(=O)N[C@@H](CO)C(=O)N[C@@H](CC(=O)O)C(=O)N[C@@H](C)C(=O)N[C@@H](Cc1ccccc1)C(=O)N[C@@H](Cc1ccc(O)cc1)C(=O)N[C@@H](CCCNC(=N)N)C(=O)N[C@@H](Cc1ccccc1)C(=O)N[C@@H](Cc1ccccc1)C(=O)N[C@@H](CCCNC(=N)N)C(=O)N[C@@H](CCCNC(=N)N)C(=O)N[C@@H](C)C(=O)N[C@@H](CCCNC(=N)N)C(=O)O)C(C)C` [Peptide-1] (H-EAEL[dD]VSDAFYRFFRRAR-OH; N-terminus and C-terminus assumed), it took 620 ± 30 nM to reach a half-maximal effect (EC50).

Usually EC50 stands for the midpoint of the concentration-response curve. A higher EC50 goes with a need for much substance.
